Test results published in ChEMBL document CHEMBL1157196, “Structure-based discovery of a novel non-peptidic small molecular inhibitor of caspase-3” (Bioorg Med Chem, 2008).

Experiments:
Caspase-8 = Caspase-8 (Homo sapiens, UniProt Q14790); assay: Inhibition of human recombinant caspase 8 preincubated for 10 mins
Caspase-9 = target: T1, Caspase-9 (Homo sapiens, UniProt P55211); assay: Inhibition of human recombinant caspase 9 preincubated for 10 mins
T1 sequence (P55211 whole entry): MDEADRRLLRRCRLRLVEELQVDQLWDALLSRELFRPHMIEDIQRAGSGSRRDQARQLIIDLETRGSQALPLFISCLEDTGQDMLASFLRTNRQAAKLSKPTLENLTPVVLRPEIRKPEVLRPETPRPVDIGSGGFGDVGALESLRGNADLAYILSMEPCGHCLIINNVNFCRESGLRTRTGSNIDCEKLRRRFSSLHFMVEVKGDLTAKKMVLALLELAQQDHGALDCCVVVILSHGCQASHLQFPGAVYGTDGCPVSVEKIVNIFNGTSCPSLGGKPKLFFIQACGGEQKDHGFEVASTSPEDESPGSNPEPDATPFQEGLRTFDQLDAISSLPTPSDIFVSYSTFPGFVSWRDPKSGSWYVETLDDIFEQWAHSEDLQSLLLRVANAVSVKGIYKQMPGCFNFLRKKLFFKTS

Caspase-3 = target: T2, Caspase-3 (Homo sapiens, UniProt P42574); assay: Inhibition of human recombinant caspase 3 preincubated for 10 mins
T2 sequence (P42574 whole entry): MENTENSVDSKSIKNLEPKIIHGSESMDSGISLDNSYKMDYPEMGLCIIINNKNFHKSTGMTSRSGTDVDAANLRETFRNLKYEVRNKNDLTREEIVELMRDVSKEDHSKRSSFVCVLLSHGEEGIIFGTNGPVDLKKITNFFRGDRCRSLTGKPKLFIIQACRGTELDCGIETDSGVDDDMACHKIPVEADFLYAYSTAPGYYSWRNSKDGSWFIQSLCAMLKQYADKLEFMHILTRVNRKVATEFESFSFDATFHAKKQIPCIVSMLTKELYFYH

Caspase-7 = target: T3, Caspase-7 (Homo sapiens, UniProt P55210); assay: Inhibition of human recombinant caspase 7 preincubated for 10 mins
T3 sequence (P55210 whole entry): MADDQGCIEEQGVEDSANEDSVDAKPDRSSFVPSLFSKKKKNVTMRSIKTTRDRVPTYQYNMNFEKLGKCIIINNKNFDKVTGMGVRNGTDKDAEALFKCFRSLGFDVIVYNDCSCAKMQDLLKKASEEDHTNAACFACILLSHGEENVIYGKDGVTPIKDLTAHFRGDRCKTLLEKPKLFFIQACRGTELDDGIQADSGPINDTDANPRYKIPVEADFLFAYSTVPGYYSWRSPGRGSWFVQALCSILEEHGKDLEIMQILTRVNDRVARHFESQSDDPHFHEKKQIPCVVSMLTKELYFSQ

Chain of Caspase-8 (Q14790 217-374 limits assumed): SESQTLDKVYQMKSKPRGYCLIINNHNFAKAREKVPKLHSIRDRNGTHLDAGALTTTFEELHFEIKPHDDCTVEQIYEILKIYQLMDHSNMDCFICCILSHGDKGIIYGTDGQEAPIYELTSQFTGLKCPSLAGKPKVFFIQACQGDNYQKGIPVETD
Chain of Caspase-8 (Q14790 385-479 limits assumed): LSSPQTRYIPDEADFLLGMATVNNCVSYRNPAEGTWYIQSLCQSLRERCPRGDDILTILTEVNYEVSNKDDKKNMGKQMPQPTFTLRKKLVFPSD

CCOC(=O)COc1cc(C(=O)O)c(O)c2ccccc12
IC50 (Caspase-8): > 100 µM
IC50 (Caspase-9): 93 µM
IC50 (Caspase-3): 13.6 µM
IC50 (Caspase-7): 84.9 µM
